Assay type in all cases: in vivo
The subject of test [1] is corn (Zea mays L.). Kind of test: Test Example 2: soil application on the day after sowing, corn. Put shortly: (§1)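 Herbicidal activity is scored on a 0–100% visual scale of growth inhibition 19–28 d after treatment. The active ingredient, weighed to prescribed doses, is applied as a diluted formulation (500 L water/ha) to soil one day post-sowing.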
For test [2], the system named is wheat (Triticum spp.). Kind of test: Test Example 1: foliar treatment, upland pot test, wheat. The following applies: for inhibition at 63 g/ha: 63 g/ha active ingredient, observed 21st day after application. Put shortly:
(§2)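 Upland soil pots, sown; foliar spray at pigweed cotyledon–2.0 leaf, velvetleaf 0.1–1.5 leaf, rice 1.0–3.0 leaf, wheat 1.7–3.4 leaf. WP/EC formulations, prescribed a.i. rate, 500 L/ha spray volume + 0.1 vol % spreader. Visual % inhibition, d17–25.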

Test [3] deals with barnyardgrass (Echinochloa crus-galli L.). Kind of test: Test Example 2: soil application on the day after sowing, barnyardgrass. In short, it runs like this:
as §1

Test [4] relates to corn (Zea mays L.). The experiment in a line: Test Example 1: foliar treatment, upland pot test, corn. The following applies: for inhibition at 63 g/ha: 63 g/ha active ingredient, observed 21st day after application.
In test [5] the test system is soybean (Glycine max Merr.). The experiment in a line: Test Example 1: foliar treatment, upland pot test, soybean. The note with it: for inhibition at 63 g/ha: 63 g/ha active ingredient, observed 21st day after application.
Test [6] relates to green foxtail (Setaria viridis L.). Kind of test: Test Example 2: soil application on the day after sowing, green foxtail. In short, it runs like this:
as §1

The subject of test [7] is crabgrass (Digitaria sanquinalis L.). The experiment in a line: Test Example 2: soil application on the day after sowing, crabgrass. In short, it runs like this:
as §1

The subject of test [8] is soybean (Glycine max Merr.). The experiment in a line: Test Example 2: soil application on the day after sowing, soybean. In short, it runs like this: as §1
In test [9] the test system is redroot pigweed (Amaranthus retroflexus L.). Kind of test: Test Example 1: foliar treatment, upland pot test, redroot pigweed. The note with it: for inhibition at 63 g/ha: 63 g/ha active ingredient, observed 21st day after application. In short, it runs like this: as §2
The test system is the same in test [10]. The experiment in a line: Test Example 2: soil application on the day after sowing, redroot pigweed. Put shortly: as §1
Test [11] has as its system prickly sida (Sida spinosa L.). Kind of test: Test Example 1: foliar treatment, upland pot test, prickly sida. The following applies: for inhibition at 63 g/ha: 63 g/ha active ingredient, observed 21st day after application.
The test system of test [12] is velvetleaf (Abutilon theophrasti MEDIC.). The experiment in a line: Test Example 2: soil application on the day after sowing, velvetleaf. In short, it runs like this:
as §1

Test [13] has as its system wheat (Triticum spp.). The experiment in a line: Test Example 2: soil application on the day after sowing, wheat. In short, it runs like this:
as §1

Test [14] concerns green foxtail (Setaria viridis L.). Kind of test: Test Example 1: foliar treatment, upland pot test, green foxtail. The following applies: for inhibition at 63 g/ha: 63 g/ha active ingredient, observed 21st day after application.
The test system of test [15] is velvetleaf (Abutilon theophrasti MEDIC.). The experiment in a line: Test Example 1: foliar treatment, upland pot test, velvetleaf. The following applies: for inhibition at 63 g/ha: 63 g/ha active ingredient, observed 21st day after application. Put shortly: as §2
Test [16] deals with crabgrass (Digitaria sanguinalis L.). The experiment in a line: Test Example 1: foliar treatment, upland pot test, crabgrass. The following applies: for inhibition at 63 g/ha: 63 g/ha active ingredient, observed 21st day after application.
Test [17] deals with prickly sida (Sida spinosa L.). Kind of test: Test Example 2: soil application on the day after sowing, prickly sida. Put shortly:
as §1

In test [18] the test system is rice (Oryza sativa L.). The experiment in a line: Test Example 2: soil application on the day after sowing, rice. Put shortly:
as §1

Test [19] has as its system barnyardgrass (Echinochloa crus-galli L.). Kind of test: Test Example 1: foliar treatment, upland pot test, barnyardgrass. The following applies: for inhibition at 63 g/ha: 63 g/ha active ingredient, observed 21st day after application.
Test [20] deals with rice (Oryza sativa L.). The experiment in a line: Test Example 1: foliar treatment, upland pot test, rice. The note with it: for inhibition at 63 g/ha: 63 g/ha active ingredient, observed 21st day after application. Put shortly:
as §2

Setting [21] is: Triticum, read-out: Growth inhibition rate (%) Wheat.
Where [22] appears, read: Zea mays, read-out: Growth inhibition rate (%) Corn.
Setting [23] is: Glycine max, read-out: Growth inhibition rate (%) Soybean.
Setting [24] is: Amaranthus retroflexus, read-out: Growth inhibition rate (%) Redroot pigweed.
[25] abbreviates: Sida spinosa, read-out: Growth inhibition rate (%) Prickly sida.
Where [26] appears, read: Setaria viridis, read-out: Growth inhibition rate (%) Green foxtail.
The mark [27] stands for this setting: Abutilon theophrasti, read-out: Growth inhibition rate (%) Velvetleaf.
[28] abbreviates: Digitaria sanguinalis, read-out: Growth inhibition rate (%) Crabgrass.
[29] abbreviates: Echinochloa crus-galli, read-out: Growth inhibition rate (%) Barnyardgrass.
[30] abbreviates: Oryza sativa, read-out: Growth inhibition rate (%) Rice.
The mark [31] stands for this setting: Zea mays, 250 g/ha active ingredient, observed 19th to 28th day after application, read-out: Growth inhibition rate (%) Corn.
Where [32] appears, read: Echinochloa crus-galli, 250 g/ha active ingredient, observed 19th to 28th day after application, read-out: Growth inhibition rate (%) Barnyardgrass.
[33] abbreviates: Setaria viridis, 250 g/ha active ingredient, observed 19th to 28th day after application, read-out: Growth inhibition rate (%) Green foxtail.
Setting [34] is: Digitaria, 250 g/ha active ingredient, observed 19th to 28th day after application, read-out: Growth inhibition rate (%) Crabgrass.
Where [35] appears, read: Glycine max, 250 g/ha active ingredient, observed 19th to 28th day after application, read-out: Growth inhibition rate (%) Soybean.
Setting [36] is: Amaranthus retroflexus, 250 g/ha active ingredient, observed 19th to 28th day after application, read-out: Growth inhibition rate (%) Redroot pigweed.
Setting [37] is: Abutilon theophrasti, 250 g/ha active ingredient, observed 19th to 28th day after application, read-out: Growth inhibition rate (%) Velvetleaf.
[38] abbreviates: Triticum, 250 g/ha active ingredient, observed 19th to 28th day after application, read-out: Growth inhibition rate (%) Wheat.
The mark [39] stands for this setting: Sida spinosa, 250 g/ha active ingredient, observed 19th to 28th day after application, read-out: Growth inhibition rate (%) Prickly sida.
[40] abbreviates: Oryza sativa, 250 g/ha active ingredient, observed 19th to 28th day after application, read-out: Growth inhibition rate (%) Rice.
Setting [41] is: 250 g/ha active ingredient, observed 19th to 28th day after application.
Setting [42] is: 31 g/ha active ingredient, observed 17th to 25th day after application.

What is called inhibition is the percentage by which the read-out fell short of the control. As to `Cn1ncc(C(=O)c2ccc(S(C)(=O)=O)c(S(C)(=O)=O)c2Cl)c1O` [compound 247], the inhibition at 500 g/ha was determined as 0% in the test on corn (Zea mays L.) [1] (Zea mays, 500 g/ha active ingredient, observed 20th day after application, read-out: Growth inhibition rate (%) Corn); 100% in [3] (Echinochloa crus-galli, 500 g/ha active ingredient, observed 20th day after application, read-out: Growth inhibition rate (%) Barnyardgrass); 100% in test [6] (Setaria viridis, 500 g/ha active ingredient, observed 20th day after application, read-out: Growth inhibition rate (%) Green foxtail); 100% in [7] (Digitaria, 500 g/ha active ingredient, observed 20th day after application, read-out: Growth inhibition rate (%) Crabgrass); 50% in [8] (Glycine max, 500 g/ha active ingredient, observed 20th day after application, read-out: Growth inhibition rate (%) Soybean); 100% in test [10] (Amaranthus retroflexus, 500 g/ha active ingredient, observed 20th day after application, read-out: Growth inhibition rate (%) Redroot pigweed). Also, the inhibition at 500 g/ha in test [12] (Abutilon theophrasti, 500 g/ha active ingredient, observed 20th day after application, read-out: Growth inhibition rate (%) Velvetleaf) amounted to 100%; in the test on wheat (Triticum spp.) [13] (Triticum, 500 g/ha active ingredient, observed 20th day after application, read-out: Growth inhibition rate (%) Wheat), 10%; in test [17] (Sida spinosa, 500 g/ha active ingredient, observed 20th day after application, read-out: Growth inhibition rate (%) Prickly sida), 75%; in the test with rice (Oryza sativa L.) [18] (Oryza sativa, 500 g/ha active ingredient, observed 20th day after application, read-out: Growth inhibition rate (%) Rice) it was 98%. The inhibition at 63 g/ha in the test with wheat (Triticum spp.) [2] (setting [21]) was determined as 0%; in the test on corn (Zea mays L.) [4] (setting [22]), 0%; in test [5] (setting [23]), 100%; in test [9] (setting [24]), 100%; in test [11] (setting [25]), 90%; in test [14] (setting [26]), 50%. Further, the inhibition at 63 g/ha stood at 80% in test [15] (setting [27]), 30% in [16] (setting [28]), 90% in test [19] (setting [29]) and 20% with rice (Oryza sativa L.) [20] (setting [30]).

Take `COc1c(S(C)(=O)=O)ccc(C(=O)c2cnn(C)c2O)c1C` [compound 143]: the inhibition at 250 g/ha in the test with corn (Zea mays L.) [1] (setting [31]) is 20%; in test [3] (setting [32]), 100%; in [6] (setting [33]), 100%; in test [7] (setting [34]), 100%; in test [8] (setting [35]), 80%; in [10] (setting [36]), 100%. In addition, the inhibition at 250 g/ha is 100% in test [12] (setting [37]), 70% with wheat (Triticum spp.) [13] (setting [38]), 90% in test [17] (setting [39]) and 100% in the test on rice (Oryza sativa L.) [18] (setting [40]). The inhibition at 31 g/ha came out at 10% in the test on wheat (Triticum spp.) [2] (Triticum, 31 g/ha active ingredient, observed 17th to 25th day after application, read-out: Growth inhibition rate (%) Wheat); 0% in the test with corn (Zea mays L.) [4] (Zea mays, 31 g/ha active ingredient, observed 17th to 25th day after application, read-out: Growth inhibition rate (%) Corn); 60% in test [5] (Glycine max, 31 g/ha active ingredient, observed 17th to 25th day after application, read-out: Growth inhibition rate (%) Soybean); 80% in test [9] (Amaranthus retroflexus, 31 g/ha active ingredient, observed 17th to 25th day after application, read-out: Growth inhibition rate (%) Redroot pigweed); 70% in [11] (Sida spinosa, 31 g/ha active ingredient, observed 17th to 25th day after application, read-out: Growth inhibition rate (%) Prickly sida); 70% in test [14] (Setaria viridis, 31 g/ha active ingredient, observed 17th to 25th day after application, read-out: Growth inhibition rate (%) Green foxtail). Also, the inhibition at 31 g/ha in test [15] (Abutilon theophrasti, 31 g/ha active ingredient, observed 17th to 25th day after application, read-out: Growth inhibition rate (%) Velvetleaf) was found to be 98%; in test [16] (Digitaria sanguinalis, 31 g/ha active ingredient, observed 17th to 25th day after application, read-out: Growth inhibition rate (%) Crabgrass) it was 70%; in test [19] (Echinochloa crus-galli, 31 g/ha active ingredient, observed 17th to 25th day after application, read-out: Growth inhibition rate (%) Barnyardgrass) it was 10%; in the test with rice (Oryza sativa L.) [20] (Oryza sativa, 31 g/ha active ingredient, observed 17th to 25th day after application, read-out: Growth inhibition rate (%) Rice), 40%.

With `CCn1ncc(C(=O)c2ccc(S(C)(=O)=O)c(OCCC3OCCO3)c2Cl)c1O` [compound 244], the inhibition at 250 g/ha stood at 0% with corn (Zea mays L.) [1] (setting [31]); 100% in test [3] (setting [32]); 70% in test [6] (setting [33]); 90% in [7] (setting [34]); 0% in [8] (setting [35]); 90% in [10] (setting [36]). The inhibition at 250 g/ha in test [12] (setting [37]) is 80%; with wheat (Triticum spp.) [13] (setting [38]), 0%; in test [17] (setting [39]), 60%; in the test on rice (Oryza sativa L.) [18] (setting [40]) it was 80%. Besides, the inhibition at 63 g/ha was 0% in the test on wheat (Triticum spp.) [2] (setting [21]); 0% in the test on corn (Zea mays L.) [4] (setting [22]); 70% in [5] (setting [23]); 80% in test [9] (setting [24]); 50% in test [11] (setting [25]); 40% in [14] (setting [26]). The inhibition at 63 g/ha worked out at 70% in test [15] (setting [27]), 20% in [16] (setting [28]), 50% in test [19] (setting [29]) and 10% with rice (Oryza sativa L.) [20] (setting [30]).

With `CCc1nn(C)c(O)c1C(=O)c1ccc(S(C)(=O)=O)c(OCCOC)c1C` [compound 261], the “Growth inhibition rate (%) Corn” value in the test with corn (Zea mays L.) [1] (setting [41]) stood at 20%; with corn (Zea mays L.) [4] (setting [42]), 0%. Also, the “Growth inhibition rate (%) Wheat” value with wheat (Triticum spp.) [2] (setting [42]) came to 5%; in the test with wheat (Triticum spp.) [13] (setting [41]), 0%. Besides, the “Growth inhibition rate (%) Barnyardgrass” value in [3] (setting [41]) turned out to be 50%; in test [19] (setting [42]), 90%. Besides, the “Growth inhibition rate (%) Soybean” value in [5] (setting [42]) worked out at 50%; in test [8] (setting [41]), 0%. For the same compound, the “Growth inhibition rate (%) Green foxtail” value in test [6] (setting [41]) is 60%; in test [14] (setting [42]), 80%. The “Growth inhibition rate (%) Crabgrass” value in test [7] (setting [41]) came to 95%; in test [16] (setting [42]) it was 90%. In addition, the “Growth inhibition rate (%) Redroot pigweed” value in test [9] (setting [42]) is given as 95%; in test [10] (setting [41]) it was 100%. For the same compound, the “Growth inhibition rate (%) Prickly sida” value in [11] (setting [42]) is 50%; in [17] (setting [41]), 20%. For the same compound, the “Growth inhibition rate (%) Velvetleaf” value in test [12] (setting [41]) was 30%; in test [15] (setting [42]), 95%. In addition, the entries for the “Growth inhibition rate (%) Rice” value in the test with rice (Oryza sativa L.) [18] (setting [41]) and with rice (Oryza sativa L.) [20] (setting [42]) were 20% and 80%, respectively.
